This passage reports Activity results from ChEMBL document CHEMBL4334438, “Discovery of novel glycogen synthase kinase-3α inhibitors: Structure-based virtual screening, preliminary SAR and biological evaluation for treatment of acute myeloid leukemia” (Eur J Med Chem, 2019).

Experiment [1] deals with Death-associated protein kinase 1 (Homo sapiens) (UniProt P53355). As to the kind of experiment: Inhibition of recombinant human DAPK1 (1 to 296 residues) assessed as residual activity at 1 uM KKLNRTLSFAEPG as substrate incubated 40 mins in presence of [gamma-33ATP] by scintillation counting based radiometry assay relative to control.
Experiment [2] deals with Phosphatidylinositol 4-phosphate 5-kinase type-1 alpha (Homo sapiens) (UniProt Q99755). As to the kind of experiment: Inhibition of recombinant full-length human PIP5K1alpha at 1 uM assessed as residual activity at 1 uM using phosphatidylinositol 4-phosphate as substrate measured after 40 mins by HTRF assay. For orientation: TR-FRET usually uses a lanthanide donor and a delayed reading to cut background.

The target of experiment [3] is Serine/threonine-protein kinase SBK1 (Homo sapiens) (UniProt Q52WX2). As to the kind of experiment: Inhibition of recombinant full-length human SBK1 assessed as residual activity at 1 uM using KKLRRTLSVA as substrate measured after 120 mins in presence of [gamma33P]ATP by scintillation counting method relative to control.
Experiment [4] concerns Discoidin domain-containing receptor 2 (Homo sapiens), Q16832 [UNDEFINED MUTATION]. As to the kind of experiment: Inhibition of recombinant human DDR2 S642A mutant (467 to end residues) assessed as residual activity at 1 uM using KKSRGDYMTMQIG as substrate at 40 mins in presence of [gamma-33ATP] by scintillation counting based radiometry assay relative to control.
In experiment [5] the target is Mitogen-activated protein kinase kinase kinase kinase 2 (Homo sapiens) (UniProt Q12851). As to the kind of experiment: Inhibition of recombinant human GCK (1 to 473 residues) assessed as residual activity at 1 uM using myelin basic protein as substrate at 40 mins in presence of [gamma-33ATP] by scintillation counting based radiometry assay relative to control.
The target in experiment [6] is Dual specificity protein kinase CLK3 (Homo sapiens) (UniProt P49761). As to the kind of experiment: Inhibition of recombinant full length human CLK3 assessed as residual activity at 1 uM using ERMRPRKRQGSVR as substrate incubated 40 mins in presence of [gamma-33ATP] by scintillation counting based radiometry assay relative to control.
Experiment [7] deals with Homeodomain-interacting protein kinase 1 (Homo sapiens) (UniProt Q86Z02). As to the kind of experiment: Inhibition of human HIPK1 (158 to 555 residues) assessed as residual activity at 1 uM using myelin basic protein as substrate after 40 mins by [gamma-33ATP] radiometric assay relative to control.
Experiment [8] concerns Casein kinase I isoform gamma-3 (Homo sapiens), Q9Y6M4 [UNDEFINED MUTATION]. As to the kind of experiment: Inhibition of recombinant human CK1gamma3 K91E/R174G/E302D mutant (1 to 330 residues) assessed as residual activity at 1 uM using KRRRALS(p)VASLPGL as substrate incubated for 40 mins in presence of [gamma-33ATP] by scintillation counting based radiometry assay relative to control.

Experiment [9] concerns the target Calcium/calmodulin-dependent protein kinase type II subunit delta (Homo sapiens) (UniProt Q13557). As to the kind of experiment: Inhibition of recombinant full length human CaMK2delta assessed as residual activity at 1 uM […] incubated for 40 mins in presence of [gamma-33ATP] by scintillation counting based radiometry assay relative to control.

Experiment [10] addresses Mitogen-activated protein kinase kinase kinase 20 (Homo sapiens) (UniProt Q9NYL2). As to the kind of experiment: Inhibition of recombinant full-length human ZAK at 1 uM assessed as residual activity at 1 uM using MBP as substrate measured after 40 mins in presence of [gamma33P]ATP by scintillation counting method relative to control.
The target in experiment [11] is Serine/threonine-protein kinase haspin (Homo sapiens) (UniProt Q8TF76). As to the kind of experiment: Inhibition of human Haspin (471 to end residues ) assessed as residual activity at 1 uM using RARTLSFAEPG as substrate after 40 mins by [gamma-33ATP] radiometric assay relative to control.
The subject of experiment [12] is Serine/threonine-protein kinase Chk2 (Homo sapiens), O96017 [R145W]. As to the kind of experiment: Inhibition of recombinant human CHK2 R145W mutant (5 to end residues) assessed as residual activity at 1 uM using KKKVSRSGLYRSPSMPENLNRPR as substrate incubated for 40 mins in presence of [gamma-33ATP] by scintillation counting based radiometry assay relative to control.

For experiment [13], the target named is Mitogen-activated protein kinase 1 (Homo sapiens) (UniProt P28482). As to the kind of experiment: Inhibition of recombinant full length human MAPK1 assessed as residual activity at 1 uM using myelin basic protein as substrate incubated for 40 mins in presence of [gamma-33P]ATP by scintillation counting based radiometry assay relative to control.
Experiment [14] relates to Casein kinase II subunit alpha' (CSNK2A2). As to the kind of experiment: Inhibition of recombinant full length human CK2alpha2 assessed as residual activity at 1 uM using RRRDDDSDDD as substrate incubated 40 mins in presence of [gamma-33ATP] by scintillation counting based radiometry assay relative to control.
Experiment [15] concerns Receptor tyrosine-protein kinase erbB-2 (Homo sapiens), P04626 [G778D]. As to the kind of experiment: Inhibition of recombinant human ERBB2 G778D mutant (676 to end residues) assessed as residual activity at 1 uM using poly(Glu, Tyr) 4:1 as substrate at 40 mins in presence of [gamma-33ATP] by scintillation counting based radiometry assay relative to control.
Experiment [16] deals with Tyrosine-protein kinase Fer (Homo sapiens) (UniProt P16591). As to the kind of experiment: Inhibition of recombinant human FER (541 to end residues) assessed as residual activity at 1 uM using KKKSPGEYVNIEFG as substrate at 40 mins in presence of [gamma-33ATP] by scintillation counting based radiometry assay relative to control.
Experiment [17] concerns the target Calcium/calmodulin-dependent protein kinase type 1G (Homo sapiens) (UniProt Q96NX5). As to the kind of experiment: Inhibition of recombinant full length human CaMKIgamma assessed as residual activity at 1 uM using KKLRRTLSFAEPG as substrate incubated for 40 mins in presence of [gamma-33ATP] by scintillation counting based radiometry assay relative to control.

Experiment [18] deals with Ribosomal protein S6 kinase alpha-3 (Homo sapiens) (UniProt P51812). As to the kind of experiment: Inhibition of recombinant human Rsk2 (2 to end residues) assessed as residual activity at 1 uM using KKKNRTLSVA as substrate measured after 40 mins in presence of [gamma33P]ATP by scintillation counting method relative to control.
The target in experiment [19] is Fibroblast growth factor receptor 1 (Homo sapiens) (UniProt P11362). As to the kind of experiment: Inhibition of recombinant human FGFR1 (456 to 765 residues) assessed as residual activity at 1 uM using KKKSPGEYVNIEF as substrate at 40 mins in presence of [gamma-33ATP] by scintillation counting based radiometry assay relative to control.
Experiment [20] deals with Inhibitor of nuclear factor kappa-B kinase subunit beta (Homo sapiens) (UniProt O14920). As to the kind of experiment: Inhibition of full length human IKKbeta assessed as residual activity at 1 uM using peptide as substrate after 40 mins by [gamma-33ATP] radiometric assay relative to control.
Experiment [21] concerns the target Serine/threonine-protein kinase Nek3 (Homo sapiens) (UniProt P51956). As to the kind of experiment: Inhibition of recombinant full-length human NEK3 assessed as residual activity at 1 uM using myelin basic protein as substrate measured after 40 mins in presence of [gamma33P]ATP by scintillation counting method relative to control.

Chain of Tyrosine-protein kinase Fer (Homo sapiens) (P16591 whole entry, looked up): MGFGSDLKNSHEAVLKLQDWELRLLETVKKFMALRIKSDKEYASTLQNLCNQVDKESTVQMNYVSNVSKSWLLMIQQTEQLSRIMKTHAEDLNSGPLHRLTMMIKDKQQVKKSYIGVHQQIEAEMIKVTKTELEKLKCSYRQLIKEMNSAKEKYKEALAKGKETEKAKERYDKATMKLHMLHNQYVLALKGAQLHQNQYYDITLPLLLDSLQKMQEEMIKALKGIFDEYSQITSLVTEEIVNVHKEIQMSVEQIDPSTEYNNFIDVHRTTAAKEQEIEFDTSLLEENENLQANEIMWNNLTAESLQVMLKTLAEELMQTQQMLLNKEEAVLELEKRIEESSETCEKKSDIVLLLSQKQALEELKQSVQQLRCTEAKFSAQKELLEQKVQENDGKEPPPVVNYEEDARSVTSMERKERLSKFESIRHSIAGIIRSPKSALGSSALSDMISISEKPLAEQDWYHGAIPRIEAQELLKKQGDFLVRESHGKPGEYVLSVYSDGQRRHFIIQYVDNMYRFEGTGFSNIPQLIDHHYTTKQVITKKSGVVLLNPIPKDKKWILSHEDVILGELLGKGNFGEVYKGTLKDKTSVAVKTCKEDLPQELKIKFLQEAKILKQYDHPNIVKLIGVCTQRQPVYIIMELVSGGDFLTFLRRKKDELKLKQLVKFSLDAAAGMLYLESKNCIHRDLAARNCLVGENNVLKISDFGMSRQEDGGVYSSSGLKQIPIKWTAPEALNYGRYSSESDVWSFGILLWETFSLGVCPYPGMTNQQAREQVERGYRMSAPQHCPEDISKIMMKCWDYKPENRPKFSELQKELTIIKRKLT
Chain of Ribosomal protein S6 kinase alpha-3 (Homo sapiens) (P51812 whole entry, the tested form may be a part): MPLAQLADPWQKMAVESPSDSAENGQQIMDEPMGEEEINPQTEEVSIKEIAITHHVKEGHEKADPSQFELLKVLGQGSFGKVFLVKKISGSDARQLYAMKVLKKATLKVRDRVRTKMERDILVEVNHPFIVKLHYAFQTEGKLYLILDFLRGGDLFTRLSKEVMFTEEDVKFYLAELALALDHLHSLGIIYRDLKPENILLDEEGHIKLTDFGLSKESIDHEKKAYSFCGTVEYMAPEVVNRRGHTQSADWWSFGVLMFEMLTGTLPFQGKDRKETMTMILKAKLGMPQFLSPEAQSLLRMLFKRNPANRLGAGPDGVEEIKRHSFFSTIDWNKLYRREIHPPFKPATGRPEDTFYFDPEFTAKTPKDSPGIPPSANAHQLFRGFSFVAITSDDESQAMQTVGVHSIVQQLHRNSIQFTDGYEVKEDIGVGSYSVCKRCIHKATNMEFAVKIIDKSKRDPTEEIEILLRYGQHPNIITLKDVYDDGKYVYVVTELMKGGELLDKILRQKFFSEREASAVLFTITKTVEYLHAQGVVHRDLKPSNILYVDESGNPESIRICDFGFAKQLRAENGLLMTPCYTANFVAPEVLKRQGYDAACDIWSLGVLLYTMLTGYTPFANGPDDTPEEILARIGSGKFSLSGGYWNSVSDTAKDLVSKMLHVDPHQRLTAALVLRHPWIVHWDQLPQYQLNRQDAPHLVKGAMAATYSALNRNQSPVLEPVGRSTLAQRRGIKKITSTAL
Chain of Serine/threonine-protein kinase Chk2 (Homo sapiens), O96017 [R145W] (O96017 whole entry R145W): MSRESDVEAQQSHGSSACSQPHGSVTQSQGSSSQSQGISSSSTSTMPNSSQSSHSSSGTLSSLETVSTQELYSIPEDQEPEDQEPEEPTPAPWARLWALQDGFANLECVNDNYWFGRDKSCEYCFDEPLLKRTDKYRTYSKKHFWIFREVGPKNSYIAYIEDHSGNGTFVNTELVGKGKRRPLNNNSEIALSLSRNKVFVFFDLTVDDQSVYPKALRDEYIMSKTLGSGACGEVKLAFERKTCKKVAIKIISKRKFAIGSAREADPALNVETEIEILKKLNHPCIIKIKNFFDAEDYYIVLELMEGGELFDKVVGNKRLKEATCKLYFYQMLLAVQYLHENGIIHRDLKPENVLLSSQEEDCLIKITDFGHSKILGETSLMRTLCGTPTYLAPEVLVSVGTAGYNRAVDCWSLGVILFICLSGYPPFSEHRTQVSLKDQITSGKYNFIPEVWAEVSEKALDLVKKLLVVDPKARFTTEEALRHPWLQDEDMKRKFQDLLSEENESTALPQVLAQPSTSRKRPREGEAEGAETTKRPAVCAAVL
Chain of Serine/threonine-protein kinase Nek3 (Homo sapiens) (P51956 whole entry): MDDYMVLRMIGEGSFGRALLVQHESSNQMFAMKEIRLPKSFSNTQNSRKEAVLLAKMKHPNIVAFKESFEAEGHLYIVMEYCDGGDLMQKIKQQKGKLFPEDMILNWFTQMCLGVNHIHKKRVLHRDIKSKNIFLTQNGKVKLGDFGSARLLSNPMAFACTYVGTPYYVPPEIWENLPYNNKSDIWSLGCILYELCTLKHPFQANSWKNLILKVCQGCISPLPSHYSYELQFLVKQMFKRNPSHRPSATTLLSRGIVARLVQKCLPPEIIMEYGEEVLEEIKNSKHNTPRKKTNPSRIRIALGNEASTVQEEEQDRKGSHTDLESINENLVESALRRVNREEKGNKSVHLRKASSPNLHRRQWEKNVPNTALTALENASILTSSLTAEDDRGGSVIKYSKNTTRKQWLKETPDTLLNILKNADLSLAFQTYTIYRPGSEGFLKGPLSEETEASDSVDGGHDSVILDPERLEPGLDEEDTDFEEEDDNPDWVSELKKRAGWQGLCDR
Chain of Inhibitor of nuclear factor kappa-B kinase subunit beta (Homo sapiens) (O14920 whole entry): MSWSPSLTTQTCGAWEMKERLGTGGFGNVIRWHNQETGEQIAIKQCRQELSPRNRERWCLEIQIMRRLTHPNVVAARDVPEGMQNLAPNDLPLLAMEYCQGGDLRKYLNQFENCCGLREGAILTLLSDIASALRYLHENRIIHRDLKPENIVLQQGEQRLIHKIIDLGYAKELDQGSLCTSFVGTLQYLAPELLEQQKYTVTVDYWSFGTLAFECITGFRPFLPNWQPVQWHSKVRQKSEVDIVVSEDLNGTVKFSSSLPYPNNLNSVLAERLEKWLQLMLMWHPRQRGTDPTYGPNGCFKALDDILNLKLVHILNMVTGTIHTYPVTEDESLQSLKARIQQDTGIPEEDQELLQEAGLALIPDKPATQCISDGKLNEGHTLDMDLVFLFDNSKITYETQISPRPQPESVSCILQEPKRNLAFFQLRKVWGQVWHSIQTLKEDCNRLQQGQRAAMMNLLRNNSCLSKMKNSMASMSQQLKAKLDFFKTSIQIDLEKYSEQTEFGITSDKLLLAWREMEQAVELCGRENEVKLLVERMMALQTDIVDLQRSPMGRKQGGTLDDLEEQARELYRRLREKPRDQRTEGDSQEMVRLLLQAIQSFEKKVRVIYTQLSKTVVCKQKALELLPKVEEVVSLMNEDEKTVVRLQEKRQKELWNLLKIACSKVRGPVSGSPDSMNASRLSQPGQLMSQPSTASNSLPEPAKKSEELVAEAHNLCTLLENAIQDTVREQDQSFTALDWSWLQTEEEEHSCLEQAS
Chain of Mitogen-activated protein kinase kinase kinase 20 (Homo sapiens) (Q9NYL2 2-800 limits assumed): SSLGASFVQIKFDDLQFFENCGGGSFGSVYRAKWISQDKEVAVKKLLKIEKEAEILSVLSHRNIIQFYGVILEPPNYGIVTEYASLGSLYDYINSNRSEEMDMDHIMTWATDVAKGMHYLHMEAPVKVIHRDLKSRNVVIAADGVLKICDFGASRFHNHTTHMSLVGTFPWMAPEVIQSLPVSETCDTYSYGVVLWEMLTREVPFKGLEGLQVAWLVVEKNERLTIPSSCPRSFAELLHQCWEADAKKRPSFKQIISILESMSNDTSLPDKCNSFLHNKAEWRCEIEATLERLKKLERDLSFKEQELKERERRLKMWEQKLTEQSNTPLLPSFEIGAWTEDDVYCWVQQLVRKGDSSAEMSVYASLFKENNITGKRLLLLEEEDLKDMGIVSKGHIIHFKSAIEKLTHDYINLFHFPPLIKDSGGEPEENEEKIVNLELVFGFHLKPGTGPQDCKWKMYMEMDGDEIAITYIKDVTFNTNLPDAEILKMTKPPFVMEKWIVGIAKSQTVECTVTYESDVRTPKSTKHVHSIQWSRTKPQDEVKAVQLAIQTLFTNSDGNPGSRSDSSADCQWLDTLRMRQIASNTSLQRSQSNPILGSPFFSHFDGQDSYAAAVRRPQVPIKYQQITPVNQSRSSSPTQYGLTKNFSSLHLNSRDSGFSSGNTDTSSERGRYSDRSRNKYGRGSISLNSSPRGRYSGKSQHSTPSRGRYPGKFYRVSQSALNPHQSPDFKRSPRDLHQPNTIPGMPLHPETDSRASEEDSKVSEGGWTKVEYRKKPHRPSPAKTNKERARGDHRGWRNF
Chain of Calcium/calmodulin-dependent protein kinase type 1G (Homo sapiens) (Q96NX5 whole entry): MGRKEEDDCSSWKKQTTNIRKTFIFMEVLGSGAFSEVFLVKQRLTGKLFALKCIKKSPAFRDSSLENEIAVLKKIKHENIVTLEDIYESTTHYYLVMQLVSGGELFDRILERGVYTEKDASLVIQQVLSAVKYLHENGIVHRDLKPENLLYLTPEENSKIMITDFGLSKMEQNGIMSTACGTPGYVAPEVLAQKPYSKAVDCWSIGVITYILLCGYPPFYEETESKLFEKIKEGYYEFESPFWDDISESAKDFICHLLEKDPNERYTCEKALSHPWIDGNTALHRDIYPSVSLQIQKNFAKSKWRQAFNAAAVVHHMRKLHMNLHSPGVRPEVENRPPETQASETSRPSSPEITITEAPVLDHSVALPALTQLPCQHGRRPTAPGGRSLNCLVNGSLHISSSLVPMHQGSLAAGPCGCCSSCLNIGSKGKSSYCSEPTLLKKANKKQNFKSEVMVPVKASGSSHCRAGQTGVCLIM
Chain of Mitogen-activated protein kinase 1 (Homo sapiens) (P28482 whole entry): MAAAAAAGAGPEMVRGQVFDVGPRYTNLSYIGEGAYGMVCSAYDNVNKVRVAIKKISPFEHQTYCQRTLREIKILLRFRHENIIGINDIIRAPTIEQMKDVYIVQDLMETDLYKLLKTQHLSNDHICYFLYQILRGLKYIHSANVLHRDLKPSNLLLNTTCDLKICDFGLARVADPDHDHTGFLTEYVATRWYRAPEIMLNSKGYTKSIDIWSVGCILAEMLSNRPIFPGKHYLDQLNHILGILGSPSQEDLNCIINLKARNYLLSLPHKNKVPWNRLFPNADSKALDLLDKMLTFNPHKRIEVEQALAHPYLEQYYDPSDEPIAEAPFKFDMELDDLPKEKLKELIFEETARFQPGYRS

As for `N=C1NC(=O)/C(=C\c2ccc(-c3cccc([N+](=O)[O-])c3)o2)S1`, the Activity in [1] stood at 84%; in experiment [2], 102%; in [3], 98%; in experiment [4] it was 108%; in [5], 81%; in [6], 92%. Besides, the Activity came to 3% in experiment [7]; 97% in experiment [8]; 92% in experiment [9]; 114% in experiment [10]; 59% in [11]; 99% in experiment [12]. Moreover, the Activity in experiment [13] is 97%; in experiment [14] it was 52%; in experiment [15], 103%; in [16] it was 93%; in [17] it was 99%; in experiment [18] it was 85%. Moreover, the Activity in experiment [19] was 99%; in [20], 62%; in experiment [21] it was 89%.

For the compound `C=CCOC(=O)c1cc(-c2ccc(/C=C3/NC(=S)NC3=O)o2)ccc1Cl`, the Activity in experiment [1] is 92%; in experiment [2] it was 98%; in experiment [3], 112%; in [4], 105%; in experiment [5] it was 89%; in experiment [6], 85%. Also, the Activity turned out to be 5% in experiment [7]; 121% in [8]; 65% in experiment [9]; 115% in experiment [10]; 87% in [11]; 91% in experiment [12]. Besides, the Activity worked out at 106% in experiment [13]; 73% in experiment [14]; 118% in experiment [15]; 105% in experiment [16]; 92% in experiment [17]; 112% in experiment [18]. In addition, the Activity in experiment [19] is 113%; in [20], 129%; in experiment [21], 94%.
